How the values were obtained:
human recombinant PTP1B [1] = target: T1, human recombinant PTP1B (Homo sapiens, UniProt P18031); assay: Reversibility assay (dilution test) with PTP1B; assay type: biochemical; settings: saturating inhibitor, 60 min 37 °C, diluted 400 folds
T1 sequence (P18031 1-435): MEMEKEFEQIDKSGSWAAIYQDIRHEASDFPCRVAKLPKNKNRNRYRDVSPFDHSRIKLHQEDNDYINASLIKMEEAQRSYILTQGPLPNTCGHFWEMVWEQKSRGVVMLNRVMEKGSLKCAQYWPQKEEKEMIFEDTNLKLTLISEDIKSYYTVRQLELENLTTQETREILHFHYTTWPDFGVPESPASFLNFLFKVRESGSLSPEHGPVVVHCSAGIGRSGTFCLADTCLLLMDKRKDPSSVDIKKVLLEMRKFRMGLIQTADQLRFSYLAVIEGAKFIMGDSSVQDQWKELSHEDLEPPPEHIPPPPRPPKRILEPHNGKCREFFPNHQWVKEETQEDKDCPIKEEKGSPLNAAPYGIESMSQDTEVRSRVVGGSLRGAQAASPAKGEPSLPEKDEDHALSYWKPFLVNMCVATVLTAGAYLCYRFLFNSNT
Protocol: An aliquot of the enzyme was incubated for 60 min at 37 °C in the presence of saturating amount of PTP1B inhibitor. After this time, an aliquot of the enzyme was withdrawn and diluted 400 folds in the assay buffer containing 2.5 mM of pNPP. After 15 min, the reaction was stopped by adding 1 mL of KOH 0.2 M. The amount of pNP released was calculating measuring the absorbance at 400 nm of solutions using a spectrophotometer. Data obtained were normalized respect to control tests, which was carried out diluting the enzyme with DMSO, the solvent used to dissolve all compounds. Data reported in the figure represent the mean value +/− S.E.M. (n = 3).

human recombinant PTP1B [2] = target: T1, human recombinant PTP1B; assay: Inhibition of human recombinant PTP1B, p-nitrophenyl phosphate as substrate; assay type: biochemical; settings: human recombinant PTP1B, pNPP as substrate; mean ± S.E.M
Protocol: PTP1B activity was determined as follow. […] After an appropriate interval time, the reaction was stopped diluting assay solution with 2 mL of KOH 0.1 M. The amount of p-nitrophenol released was determined measuring the absorbance of the solution at 400 nm using a spectrophotometer and a 1-cm optical pathlength (εmM of p-nitrophenol is 18). The IC50 value was determined measuring the pNPP hydrolysis rate in the presence of increasing inhibitor concentration. For each inhibitor, 15–16 different concentrations were used. All tests were carried out in triplicate and data obtained were normalized respect to control sample.

human recombinant AR = target: T2, human recombinant AR (Homo sapiens, UniProt P15121); assay: Reversibility of AR inhibition (dialysis); assay type: biochemical
T2 construct: made in house; host or cells: E. coli BL21(DE3)pLysS
Protocol: In order to evaluate the reversibility of the inhibitory action, 8 mU of purified AR were assayed in the presence of 5 μM of compounds 4a, 4e and 4f. In these conditions less than 15% of the enzyme activity was measured in the presence of 2 mM L-idose as substrate. The mixture was then extensively dialysed on Amicon ultrafiltration membrane (cut off 10 KDa) against 10 mM sodium phosphate buffer, pH 7.0. After dialysis, the enzyme activity was again measured as above and compared to that of a mixture in the absence of inhibitor and treated in the same conditions.

C2C12 cells = assay: Cell viability, MTT assay, C2C12; assay type: cell-based, murine; settings: C2C12, 48 h
Protocol: (§1) Human liver cells (HepG2) and murine myoblasts (C2C12) were purchased by Sigma-Aldrich, which obtained them from the European Collection of Authenticated Cell Cultures (ECACC). HepG2 and C2C12 cells were grown in Dulbecco’s Modified Eagle’s medium (DMEM) supplemented with 10% foetal bovine serum (FBS), 2 mM glutamine, 100 IU/mL penicillin, 100 μg/mL streptomycin (Sigma-Aldrich, St. Louis, MO, USA), in a humidified atmosphere and with 5% CO2 at 37 °C. Differentiation of C2C12 was induced incubating murine myoblasts in DMEM supplemented with 2% horse serum. C2C12 cells were plated and grown until they reach 70% confluence. Then, cells were incubated in the presence of 2% horse serum for 96 h. Every 48 h, the medium was replaced with fresh medium. After 96 h, the degree of differentiation was evaluated analysing cells with a contrast phase microscope.
(§2) HepG2 and C2C12 cells were incubated in the presence of increasing concentrations of compounds 4e and 4f for 48 h at 37 °C. After this time, cells were washed with PBS and then incubated for 1 h with 0.5 mg/mL of MTT dissolved in complete medium. Then cells were washed and lysed with 300 μL of DMSO. The absorbance of solutions were evaluated using a microplate readers at 595 nm. All data were normalized respect to control experiment.

HepG2 cells = assay: Cell viability, MTT assay, HepG2; assay type: cell-based, human; settings: HepG2, 48 h, up to 50 μM
Protocol: as §1, §2

[3] = system: insulin receptor (IRβ) phosphorylation in HepG2 cells; assay: Insulin receptor phosphorylation in HepG2 cells (western blot); assay type: cell-based, human
Protocol: The insulin mimetic/sensitizing activity of compound 4f was evaluated on both HepG2 and C2C12 cells. Starved HepG2 and C2C12 cells were incubated in the presence of compound 4f (25 μM) for 90 min and after stimulated or not with insulin (10 nM). Then, cells extracts were analysed to evaluate phosphorylation levels of the insulin receptor.
HepG2 and differentiated C2C12 cells were starved for 24 h and then incubated in the presence of compound 4f (25 μM, final concentration) for 90 min. After this time, cells were washed with PBS and then stimulated or not with 10 nM insulin for 30 min. Then, cells were lysed and cellular proteins separated on a 12% SDS-PAGE. After electrophoresis, cellular proteins were transferred on a PVDF membrane by western blot technique and then probed against antibodies able to specifically recognize insulin receptor (I2033 Sigma Aldrich) or phosphorylated form of IR (MABS65, Sigma-Aldrich). Sample loading was evaluated probing PVDF membrane with anti-actin antibodies (ABT1485 Sigma Aldrich).

human recombinant PTP1B [4] = target: T1, human recombinant PTP1B; assay: Kinetic analysis of PTP1B inhibition (Lineweaver-Burk plot); assay type: biochemical; settings: pNPP as substrate
Protocol: Kinetic analyses were carried out to dissect action mechanism of compound 4e and 4f. Briefly, the main kinetic parameters, Km and Vmax, were calculated measuring the initial hydrolysis rate of PTP1B in the presence of increasing pNPP concentration (seven different concentrations in the 0.5–25 mM range). All assays were carried out in duplicate. Data obtained were fitted using the Michaelis-Menten equation. To evaluate the action mechanism of inhibitors, we studied the dependence of Km and Vmax from inhibitors concentration, using three different inhibitor concentrations, at least. Data obtained were then analysed by double reciprocal plot (Lineweaver-Burk plot).

For `O=C(O)CCN1C(=O)/C(=C/c2ccc(OCCc3ccccc3)cc2)SC1=S` [4f, 3-[(5Z)-4-Oxo-{5-[4-(2-phenylethoxy)phenyl]methylidene}-2-thioxothiazolidin-3-yl]propanoic acid], the “Reversibility of PTP1B inhibition” value (human recombinant PTP1B [1]) was “reversible inhibitors”, the IC50 (human recombinant PTP1B [2]) was 12.7 ± 0.3 µM and the “AR enzyme activity recovered after removal of the inhibitor upon extensive dialysis” value (human recombinant AR; 5 μM compound before dialysis) was “more than 90%”. The “AR enzyme activity measured in the presence of compound” value (human recombinant AR; 5 μM compound, 2 mM L-idose, before dialysis) was “less than 15%”, the “Concentration at which a reduction of cell viability was observed” value (C2C12 cells; highest concentration tested) was 50 µM and the “Cytotoxicity (cell viability, MTT)” value (C2C12 cells; up to 50 μM) was “well tolerated”. For the same compound, the “Cytotoxicity (cell viability, MTT)” value (HepG2 cells) was “well tolerated”, the “Increase of IRβ phosphorylation level after stimulation with insulin” value ([3]; HepG2, 25 μM for 90 min, then 10 nM insulin 30 min, control cells 39%) was 260% and the “Effect on basal phosphorylation levels of IRβ” value ([3]; HepG2, 25 μM, 90 min, no insulin) was “marked reduction”. For the same compound, the “Mechanism of PTP1B inhibition” value (human recombinant PTP1B [4]) was “mixed-type non-competitive inhibitors”, the “PTP1B K′i (apparent dissociation constant, EIS complex)” value (human recombinant PTP1B [4]) was 2.3 ± 0.1 µM and the Ki (human recombinant PTP1B [4]; read-out: PTP1B Ki (apparent dissociation constant)) was 900 ± 100 nM.

From article PMC7828111, “In Search for Multi-Target Ligands as Potential Agents for Diabetes Mellitus and Its Complications—A Structure-Activity Relationship Study on Inhibitors of Aldose Reductase and Protein Tyrosine Phosphatase 1B” (Molecules, 2021)
